Assay results as given in patent US20240131032A1, “AN ACTIVITY-GUIDED MAP OF ELECTROPHILE-CYSTEINE INTERACTIONS IN PRIMARY HUMAN IMMUNE CELLS” (The Scripps Research Institute, priority 2019, published 2024).
Blank lines part the entries; values can stand above or below the compound they belong to.

Legend:
BIRC2 = BIRC2 (Homo sapiens, UniProt Q13490, C45A); assay: Western blot of BIRC2 content in human T cells; conditions: EV-3 10 μM, AT-406 1 μM, 24 h; transfected primary human T cells
primary human T cells [1] = assay: Multidimensional screen for inhibition of T cell activation (IL-2, IFN-γ secretion, CD25, CD69 expression); format: cell-based; conditions: anti-CD3/anti-CD28-stimulated T cells
Procedure: FIG. 4A-4D is an overview of a multidimensional screen to identify elaborated electrophilic compounds that suppress T cell activation. FIG. 4A is a workflow for T-cell activation screen. Primary human T cells were treated with a focused library of elaborated electrophilic compounds (10 μM, structures of compounds in FIG. 12), a positive control immunosuppressive compound (DMF, 50 μM), or DMSO under TCR-stimulating conditions in 96-well plates pre-coated with 5 μg/mL αCD3 and 2 μg/mL αCD28 for 24 h. T cell activation was measured using a combination of markers, including IL2 and IFNγ secretion, as well as surface expression of CD25 and CD69. T cell viability was measured by flow cytometry using a Fixable Near-IR LIVE/DEAD™ Cell Stain. Compounds were considered as active hits if they reduced IL2 cytokine production by >65% with <15% reduction in T cell viability in the cytotoxicity assay compared to DMSO control. […]
The levels of secreted IL2, IFNγ and TNFα after incubating T cells in the presence of DMSO or electrophilic compounds under TCR-stimulating conditions were measured using DuoSet ELISA cytokine kits (R&D Systems) in clear microplates (R&D Systems) according to manufacturer's instructions and read using a CLARIOstar (BMG Labtech) plate reader (450 nm). All cytokine concentrations were calculated according to the standard curve generated for each experiment.

primary human T cells [2] = assay: T cell viability by flow cytometry (near-IR LIVE/DEAD stain); format: cell-based; conditions: concentration-dependent profiles, at <20 μM
Procedure: FIG. 4A-4D is an overview of a multidimensional screen to identify elaborated electrophilic compounds that suppress T cell activation. FIG. 4A is a workflow for T-cell activation screen. Primary human T cells were treated with a focused library of elaborated electrophilic compounds (10 μM, structures of compounds in FIG. 12), a positive control immunosuppressive compound (DMF, 50 μM), or DMSO under TCR-stimulating conditions in 96-well plates pre-coated with 5 μg/mL αCD3 and 2 μg/mL αCD28 for 24 h. T cell activation was measured using a combination of markers, including IL2 and IFNγ secretion, as well as surface expression of CD25 and CD69. T cell viability was measured by flow cytometry using a Fixable Near-IR LIVE/DEAD™ Cell Stain. Compounds were considered as active hits if they reduced IL2 cytokine production by >65% with <15% reduction in T cell viability in the cytotoxicity assay compared to DMSO control. […] FIG. 4C are structures of active hit compounds selected for follow-up studies, including two acrylamides (BPK-21, BPK-25), two chloroacetamides (EV-3, EV-93) and DMF as a positive control. FIG. 4D are line graphs showing T cell activation and cytotoxicity profiles for selected hit compounds.
Non-tissue culture treated 96-well plates were pre-coated with αCD3 (5 μg/mL) and αCD28 antibodies (2 μg/mL) in PBS (100 μL/well) and left at 4° C. overnight. Freshly isolated T cells were re-suspended in RPMI media supplemented with 10% FBS, L-glutamine (2 mM), penicillin (100 U/mL), and streptomycin ([…]) at 2×10^6 cells/mL. Compound stocks (200×) in DMSO were diluted to 2× stocks in the working RPMI media in another 96-well plate. The pre-coated 96-well treatment plates were washed with PBS ([…]), T cells (100 μL/well, 2×10^5 cells/well) were then added to the wells, followed by the addition of 2× compound stocks in RPMI media (100 μL). The outer wells of the plates were filled with media without cells to avoid the edge effect in the assay. The treatment was done overnight (24 h) at 37° C. in a 5% CO2 containing incubator. Following the treatment, the cells were transferred to a U-bottom 96-well plate and harvested by centrifugation (600 g, 3 min, 4° C.). The supernatants were kept and stored at −80° C. for further cytokine analysis, while the cells were washed with PBS (2×150 μL) prior to staining for flow cytometry analysis.
Following the PBS washes, the cells were stained with fixable near-IR LIVE/DEAD cell stain (Invitrogen) according to manufacturer's instructions. Briefly, one vial of near-IR LIVE/DEAD dye was resuspended in DMSO (50 μL) and diluted with PBS (1:1000). The diluted stain was added to each well (200 μL) and the cells were incubated for 30 min at room temperature in the dark. After this time, the cells were pelleted (600 g, 3 min, 4° C.), washed once with PBS (200 μL/well) and incubated with a freshly made cocktail of antibodies for the appropriate cell surface markers diluted in PBS containing 2% FBS (1:400 antibody dilution).

MYD88 = target: T1, MYD88 (Homo sapiens, UniProt Q99836); assay: isoTOP-ABPP and TMT-ABPP cysteine engagement, MYD88; format: binding; conditions: scout fragments
T1 construct: endogenous in cells
Procedure: Activated or expanded T cells were re-suspended in RPMI media supplemented with 10% FBS, L-glutamine (2 mM), penicillin (100 U/mL), and streptomycin (100 μg/mL) at 2×10^6 cells/mL. The compounds were added to cells as 1000×DMSO stocks and mixed well with the media by pipetting up and down after addition. The cells were kept at 37° C. in 5% CO2 containing incubators for 3 h (or otherwise specified times), then pelleted by centrifugation (524 g, 5 min, 4° C.), washed with cold PBS (10 mL) and transferred to Eppendorf tubes (1 mL PBS). The cells were pelleted again (524 g, 5 min, 4° C.), flash-frozen, and kept at −80° C. until further analysis.
Activated or expanded primary human T cells were re-suspended in RPMI (1×10^6 cells/mL) containing 10% fetal bovine serum (FBS), penicillin (100 U/mL), streptomycin ([…]), and L-glutamine (2 mM). The cells were treated with DMSO or compounds for 3 h, pelleted (524 g, 5 min), washed with PBS, and lysed by sonication (2×8 pulses). Soluble and particulate proteomic fractions were separated by ultracentrifugation (100,000 g, 45 min), and protein concentration was normalized to 1.7 mg/mL using a standard DC protein assay (Bio-Rad). The resulting proteomes were analyzed by competitive isotopic Tandem Orthogonal Proteolysis Activity-Based Protein Profiling (isoTOP-ABPP). […]
The heavy/light isoTOP-ABPP ratios (R values) for each unique peptide (DMSO/compound treated) were quantified with in-house CIMAGE software (Weerapana et al., 2010) using default parameters (3 MS1 acquisitions per peak and signal to noise threshold set to 2.5). Site-specific engagement of cysteine residues was assessed by blockade of IA-alkyne probe labeling. […] Ratios for unique peptide sequences were calculated for each experiment; overlapping peptides with the same modified cysteine (e.g., different charge states, elution times or tryptic termini) were grouped together and the median ratio was reported as the final ratio (R). […]

PDCD1 = target: T2, PDCD1 (Homo sapiens, UniProt Q15116); assay: TMT-ABPP scout fragment sensitivity, PDCD1; format: binding; conditions: activated T cells; 500 μM, 1 h
T2 construct: endogenous in cells
Excerpt: FIG. 2A-2J provides an overview of chemical proteomic mapping of fragment electrophile-cysteine interactions and reactivity changes in human T cells. […] This protocol was applied to both control and activated T cells. FIG. 2B are structures of scout fragments KB02 and KB05. FIG. 2C-FIG. 2D are pie chart representations of cysteines (C) and proteins (D) liganded with scout fragments. Results were obtained by combining soluble and particulate proteomic fraction data for KB02 and KB05 treatments (500 μM, 1 h) of both control and activated T cells. R-values within each experimental treatment group were derived from 3-5 independent isoTOP-ABPP experiments and 4 independent TMT-ABPP experiments (6 TMT channels). A cysteine was required to be quantified in at least two experiments for each compound treatment or proteomic fraction group to be reported. FIG. 2E are bar graphs showing the total number (left) and percentage (right) of liganded cysteines per total number of cysteines quantified across the indicated reactivity ranges, where cysteine reactivity was determined by isoTOP-ABPP experiments performed with different concentrations of the IA-alkyne probe (10 and 100 μM), as described previously (Weerapana et al., 2010). FIG. 2F are bar graphs showing the total number (left) and percentage (right) of liganded proteins with expression or reactivity changes in activated T cells. […]

T1 sequence (Q99836 whole entry, the tested form may be a part): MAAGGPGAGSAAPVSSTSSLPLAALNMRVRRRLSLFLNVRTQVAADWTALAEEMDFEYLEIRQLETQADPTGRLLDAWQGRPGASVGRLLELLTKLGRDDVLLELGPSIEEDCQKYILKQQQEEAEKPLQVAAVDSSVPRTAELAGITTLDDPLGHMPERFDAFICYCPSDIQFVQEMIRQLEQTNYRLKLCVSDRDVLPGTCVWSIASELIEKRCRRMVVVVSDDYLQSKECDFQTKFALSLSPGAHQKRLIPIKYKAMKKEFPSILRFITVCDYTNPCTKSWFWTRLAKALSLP
Sequence of BIRC2 (Q13490 whole entry C45A): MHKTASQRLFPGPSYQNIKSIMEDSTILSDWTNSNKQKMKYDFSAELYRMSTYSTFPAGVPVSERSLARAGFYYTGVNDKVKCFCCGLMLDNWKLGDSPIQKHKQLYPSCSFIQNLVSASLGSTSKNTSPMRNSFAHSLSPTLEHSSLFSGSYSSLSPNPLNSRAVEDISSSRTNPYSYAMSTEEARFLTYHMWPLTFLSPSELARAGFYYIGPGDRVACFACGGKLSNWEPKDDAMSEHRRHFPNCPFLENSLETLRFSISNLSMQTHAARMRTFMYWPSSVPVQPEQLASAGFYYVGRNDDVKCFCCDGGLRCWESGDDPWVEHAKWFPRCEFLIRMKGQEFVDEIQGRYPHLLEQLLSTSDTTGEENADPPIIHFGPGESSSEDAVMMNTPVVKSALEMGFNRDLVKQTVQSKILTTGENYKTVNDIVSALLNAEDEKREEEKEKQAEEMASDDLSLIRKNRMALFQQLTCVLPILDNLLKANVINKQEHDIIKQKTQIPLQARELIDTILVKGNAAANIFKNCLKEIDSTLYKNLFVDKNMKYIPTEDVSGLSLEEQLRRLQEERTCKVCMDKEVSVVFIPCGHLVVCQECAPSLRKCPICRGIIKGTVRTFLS
T2 sequence (Q15116 25-288): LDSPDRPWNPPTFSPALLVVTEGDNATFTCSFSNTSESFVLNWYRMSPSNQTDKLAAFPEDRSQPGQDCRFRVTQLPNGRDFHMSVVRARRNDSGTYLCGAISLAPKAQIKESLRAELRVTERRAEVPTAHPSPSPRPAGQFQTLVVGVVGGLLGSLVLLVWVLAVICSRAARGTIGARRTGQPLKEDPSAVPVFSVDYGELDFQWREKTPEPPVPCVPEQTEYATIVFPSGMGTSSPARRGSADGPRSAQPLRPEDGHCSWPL

SMILES: CN[C@@H](C)C(=O)N[C@H]1CN(C(=O)CC(C)C)CC[C@H]2CC[C@@H](C(=O)NC(c3ccccc3)c3ccccc3)N2C1=O [AT406]
FLAG-tagged BIRC2 C45A mutant content (BIRC2): still promotes the degradation

SMILES: CCCCS(=N)(=O)CCC(N)C(=O)O (stereo not drawn) [BSO, buthionine sulphoximine]
effect on T cell activation (primary human T cells [1]): did not affect T cell activation

SMILES: O=C(c1cccc(N2CCOCC2)c1)N1CCC(N(C(=O)CCl)c2ccccc2)C(Cc2ccccc2)C1 (stereo not drawn) [EV-93]
cytotoxicity (primary human T cells [2]): negligible cytotoxicity

modification of MYD88 at either C274 or C280 (tryptic peptide 270-282) (MYD88): covalently modified
sensitivity of C93 of PDCD1 (PDCD1): KB02-sensitivity
SMILES: COc1ccc2c(c1)CCCN2C(=O)CCl [KB02]

SMILES: C=CC(=O)N(c1ccccc1)c1ccc(Br)cc1 [KB05]
modification of MYD88 at either C274 or C280 (tryptic peptide 270-282) (MYD88): covalently modified
